Measured values published in patent US8501794B2, “Compounds as cannabinoid receptor ligands” (priority 2007, dated 2013).

Key:
[1] = molecular target: T1, rat CB2 (Rattus norvegicus, UniProt Q9QZN9); assay: rat CB2 radioligand binding assay ([3H]CP-55,940 competition); parameters: expressed in transfected cells; host or cells: HEK293
T1 sequence (Q9QZN9 1-360): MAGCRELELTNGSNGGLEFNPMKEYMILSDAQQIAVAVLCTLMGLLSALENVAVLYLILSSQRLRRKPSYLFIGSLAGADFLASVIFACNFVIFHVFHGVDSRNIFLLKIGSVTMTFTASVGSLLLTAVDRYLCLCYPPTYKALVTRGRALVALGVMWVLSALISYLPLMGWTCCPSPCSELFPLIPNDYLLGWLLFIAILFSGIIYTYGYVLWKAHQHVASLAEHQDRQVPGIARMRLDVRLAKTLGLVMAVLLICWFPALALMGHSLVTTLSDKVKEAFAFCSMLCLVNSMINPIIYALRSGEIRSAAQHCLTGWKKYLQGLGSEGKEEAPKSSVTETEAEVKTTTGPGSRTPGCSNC

[2] = molecular target: T1, rat CB2; assay: rat CB2 cyclase functional assay (HitHunter cAMP, HEK cells); format: cell-based; parameters: expressed in transfected cells; host or cells: HEK; settings: forskolin 18 μM
[3] = molecular target: T2, human CB2 receptors (Homo sapiens, UniProt P34972); assay: human CB2 radioligand binding assay ([3H]CP-55,940 competition)
T2 construct: expressed in transfected cells; host or cells: HEK293
T2 sequence (P34972 whole entry): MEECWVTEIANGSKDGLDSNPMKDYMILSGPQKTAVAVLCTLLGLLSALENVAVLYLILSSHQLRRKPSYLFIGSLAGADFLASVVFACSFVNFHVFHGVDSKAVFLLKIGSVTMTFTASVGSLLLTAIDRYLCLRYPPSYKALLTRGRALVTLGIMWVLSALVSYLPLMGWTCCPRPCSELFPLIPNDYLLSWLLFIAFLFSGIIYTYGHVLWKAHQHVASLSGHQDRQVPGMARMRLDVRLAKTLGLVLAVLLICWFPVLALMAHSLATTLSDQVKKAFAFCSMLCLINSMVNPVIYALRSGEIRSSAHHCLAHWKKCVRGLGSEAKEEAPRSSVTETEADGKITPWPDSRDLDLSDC

| SMILES | Ki [1] [nM] | EC50 [2] [nM] | Ki [3] [nM] |
| --- | --- | --- | --- |
| CCCCc1cn(C(C)(C)C)s/c1=N\C(=O)[C@H]1CC[C@@](C)(C(N)=O)C1(C)C [Example 171, (1R,3S)—N^3-[(5Z)-4-butyl-2-tert-butylisothiazol-5(2H)-ylidene]-1,2,2-trimethylcyclopentane-1,3-dicarboxamide] | 5.8 | 0.19 | 9 |
| CCCCc1cn(C(C)(C)C)s/c1=N\C(=O)[C@]1(C)CC[C@H](C(=O)O)C1(C)C [Example 173, (1S,3R)-3-({[(5Z)-4-butyl-2-tert-butylisothiazol-5(2H)-ylidene]amino}carbonyl)-2,2,3-trimethylcyclopentanecarboxylic acid] | 77 | 3.5 | 107 |
| CCCCc1cn(C(C)(C)C)s/c1=N\C(=O)[C@@]1(C)CC[C@@H](C(=O)O)C1(C)C [Example 174, (1R,3S)-3-({[(5Z)-4-butyl-2-tert-butylisothiazol-5(2H)-ylidene]amino}carbonyl)-2,2,3-trimethylcyclopentanecarboxylic acid] | 33 | 3.4 | 62 |
| CCCCc1cn(C(C)(C)C)s/c1=N\C(=O)[C@]1(C)CC[C@H](C(=O)OCC)C1(C)C [Example 175, Ethyl (1S,3R)-3-({[(5Z)-4-butyl-2-tert-butylisothiazol-5(2H)-ylidene]amino}carbonyl)-2,2,3-trimethylcyclopentanecarboxylate] | 1.5 | 0.54 | 3.8 |
| CCCCc1cn(C(C)(C)C)s/c1=N\C(=O)[C@@]1(C)CC[C@@H](C(=O)OCC)C1(C)C [Example 176, Ethyl (1R,3S)-3-({[(5Z)-4-butyl-2-tert-butylisothiazol-5(2H)-ylidene]amino}carbonyl)-2,2,3-trimethylcyclopentanecarboxylate] | 7 | 1.1 | 16 |
| CCCCc1cn(C(C)(C)C)s/c1=N\C(=O)[C@]1(C)CC[C@H](C(=O)OC)C1(C)C [Example 177, Methyl (1S,3R)-3-({[(5Z)-4-butyl-2-tert-butylisothiazol-5(2H)-ylidene]amino}carbonyl)-2,2,3-trimethylcyclopentanecarboxylate] | 0.1 | 0.15 | 0.16 |
| CCCCc1cn(C(C)(C)C)s/c1=N\C(=O)[C@]1(C)CC[C@H](C(=O)NC)C1(C)C [Example 184, (1R,3S)—N^1-[(5Z)-4-butyl-2-tert-butylisothiazol-5(2H)-ylidene]-N^3,1,2,2-tetramethylcyclopentane-1,3-dicarboxamide] | 3.2 | 0.41 | 6.5 |
| CCCCc1cn(C(C)(C)C)s/c1=N\C(=O)[C@@]1(C)CC[C@@H](C(=O)OC)C1(C)C [Example 186, Methyl (1R,3S)-3-({[(5Z)-4-butyl-2-tert-butylisothiazol-5(2H)-ylidene]amino}carbonyl)-2,2,3-trimethylcyclopentanecarboxylate] | 1.4 | 0.38 | 1.7 |
| CCCCc1cn(C(C)(C)C)s/c1=N\C(=O)NC1CCC(C)CC1 (stereo not drawn) [Example 191, N-[(5Z)-4-butyl-2-tert-butylisothiazol-5(2H)-ylidene]-N′-(4-methylcyclohexyl)urea] | 1.8 | 0.51 | 15 |
| CCCCc1cn(C(C)(C)C)s/c1=N\C(=O)c1cc(C(F)(F)F)ccc1OC[C@@H]1CCCN1C [Example 192, N-[(5Z)-4-butyl-2-tert-butylisothiazol-5(2H)-ylidene]-2-{[(2S)-1-methylpyrrolidin-2-yl]methoxy}-5-(trifluoromethyl)benzamide] | 18 | 3.4 | 46 |
| CCCCc1cn(C(C)(C)C)s/c1=N\C(=NC#N)c1cc(C(F)(F)F)ccc1OC[C@@H]1CCCN1C [Example 193] | 97 | 2.7 | 37 |
| CCCCc1cn(C(C)(C)C)s/c1=N\C(=O)c1cc(C(F)(F)F)ccc1OC[C@@H]1COC(=O)N1 [Example 195, N-[(5Z)-4-butyl-2-tert-butylisothiazol-5(2H)-ylidene]-2-{[(4R)-2-oxo-1,3-oxazolidin-4-yl]methoxy}-5-(trifluoromethyl)benzamide] | 7.6 | 1.4 | 16 |
| CCCCc1cn(C(C)(C)C)s/c1=N\C(=O)c1cc(C(F)(F)F)ccc1OCC1CCCCN1C (stereo not drawn) [Example 196, N-[(5Z)-4-butyl-2-tert-butylisothiazol-5(2H)-ylidene]-2-[(1-methylpiperidin-2-yl)methoxy]-5-(trifluoromethyl)benzamide] | 28.8 | 2.4 | 18 |
| CCCCc1cn(C(C)(C)C)s/c1=N\C(=O)[C@@H]1CC[C@](C)(C(=O)NC)C1(C)C [Example 209, (1S,3R)—N^3-[(5Z)-4-butyl-2-tert-butylisothiazol-5(2H)-ylidene]-N^1,1,2,2-tetramethylcyclopentane-1,3-dicarboxamide] | 7.3 | 0.44 | 12 |
| CCCCc1cn(C(C)(C)C)s/c1=N\C(=O)[C@@H]1CC[C@](C)(C(=O)NCC)C1(C)C [Example 210, (1S,3R)—N^3-[(5Z)-4-butyl-2-tert-butylisothiazol-5(2H)-ylidene]-N^1-ethyl-1,2,2-trimethylcyclopentane-1,3-dicarboxamide] | 49 | 0.19 | 36 |
| CCCCc1cn(C(C)(C)C)s/c1=N\C(=O)[C@@H]1CC[C@](C)(C(=O)NCCO)C1(C)C [Example 212, (1S,3R)—N^3-[(5Z)-4-butyl-2-tert-butylisothiazol-5(2H)-ylidene]-N^1-(2-hydroxyethyl)-1,2,2-trimethylcyclopentane-1,3-dicarboxamide] | 257 | 6.2 | 180 |
| CCCCc1cn(C(C)(C)C)s/c1=N\C(=O)[C@]1(C)CC[C@H](C2=NCCO2)C1(C)C [Example 217, (1R,3S)—N-[(5Z)-4-butyl-2-tert-butylisothiazol-5(2H)-ylidene]-3-(4,5-dihydro-1,3-oxazol-2-yl)-1,2,2-trimethylcyclopentanecarboxamide] | 0.73 | 0.16 | 0.7 |
| CCCCc1cn(C(C)(C)C)s/c1=N\C(=O)[C@@]1(C)CC[C@@H](C(=O)NC)C1(C)C [Example 218, (1S,3R)—N^1-[(5Z)-4-butyl-2-tert-butylisothiazol-5(2H)-ylidene]-N^3,1,2,2-tetramethylcyclopentane-1,3-dicarboxamide] | 29 | 1.1 | 53 |
| CCCCc1cn(C(C)(C)C)s/c1=N\C(=O)[C@@]1(C)CC[C@@H](C(=O)N2CCC2)C1(C)C [Example 222, (1S,3R)-3-(azetidin-1-ylcarbonyl)-N-[(5Z)-4-butyl-2-tert-butylisothiazol-5(2H)-ylidene]-1,2,2-trimethylcyclopentanecarboxamide] | 70 | 5.7 | 170 |
| CCCCc1cn(C(C)(C)C)s/c1=N\C(=O)[C@@]1(C)CC[C@@H](C(=O)N(C)C)C1(C)C [Example 223, (1S,3R)—N^1-[(5Z)-4-butyl-2-tert-butylisothiazol-5(2H)-ylidene]-N^3,N^3,1,2,2-pentamethylcyclopentane-1,3-dicarboxamide] | 62 | 5.8 | 92 |
| CCCCc1cn(C(C)(C)C)s/c1=N\C(=O)[C@@]1(C)CC[C@@H](C(=O)NCC(F)(F)F)C1(C)C [Example 240, (1S,3R)—N^1-[(5Z)-4-butyl-2-tert-butylisothiazol-5(2H)-ylidene]-1,2,2-trimethyl-N^3-(2,2,2-trifluoroethyl)cyclopentane-1,3-dicarboxamide] | 156 | 2.5 | 100 |
| CCCCc1cn(C(C)(C)C)s/c1=N\C(=O)[C@]1(C)CC[C@H](NC(N)=O)C1(C)C [Example 245, (1R,3S)-3-[(aminocarbonyl)amino]-N-[(5Z)-4-butyl-2-tert-butylisothiazol-5(2H)-ylidene]-1,2,2-trimethylcyclopentanecarboxamide] | 35 | 9.6 | 32 |
